# Data: patent US10800789B2, “Antiviral compounds” (Gilead Pharmasset LLC, priority 2012, dated 2020)
# pEC50: −log10 of the molar value. Like-named read-outs stand apart in the source and are kept apart here.
# How the values were obtained:
# [1] = tested on: NS5A chimeric genotype 1b Con1 replicon with genotype 4a ED43 strain NS5A gene; test: Replicon assay, genotype 4a NS5A chimera; type: cell-based, HCV; conditions: Hepatitis C virus; for EC50: read-out: 4a (s) (nM), genotype 4a NS5A chimeric replicon, stable replicon cells (s); for pEC50: read-out: 4a (s), (s), activity range
# [2] = tested on: stable HCV 1a RLuc replicon cells (dicistronic genotype 1a H77 replicon); test: Renilla luciferase HCV replicon reporter assay, genotype 1a; type: cell-based; conditions: Hepatitis C virus, 72 h, stable 1a H77 RLuc replicon cells
# Outline: (§1)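 Antiviral EC50 was determined in HCV replicon cells (stable RLuc lines for 1a H77, 1b Con1, 2a JFH-1 with NS5A L31; J6 NS5A chimera with M31) treated 72 h with compound. Renilla luciferase was then quantified.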
# [3] = tested on: stable HCV 1b RLuc replicon cells (dicistronic genotype 1b Con1 replicon); test: Renilla luciferase HCV replicon reporter assay, genotype 1b; type: cell-based; conditions: Hepatitis C virus, 72 h, stable 1b Con1 RLuc replicon cells, 72 hours; read-out: 1b
# Outline: as §1
# [4] = IV and PO single dose pharmacokinetic studies in SD rats; type: in vivo, male Sprague-Dawley (SD) rats; conditions: Sprague-Dawley, rat, plasma, male SD rats, PO 2 mg/kg vs IV infusion 1 mg/kg, read-out: Rat % F
# Protocol: IV and PO Single Dose Pharmacokinetic Studies in SD Rats:
# The pharmacokinetics of selected compounds was characterized in male Sprague-Dawley (SD) rats (250-300g). In this study, two groups of naïve purebred SD rats (N=3 per group, fasted over night) received the selected compound either as an intravenous (IV) infusion (1 mg/kg over 30 minutes) via the jugular vein or by oral gavage (2 mg/kg). The intravenous (IV) dosing vehicle was 5% ethanol, 35% polyethylene glycol 400 (PEG 400) and 60% water pH 2.0. The oral dosing vehicle was 5% ethanol, 55% PEG 400 and 40% citrate buffer pH 2.2.
# Serial blood samples (approximately 0.3 mL each) were collected from jugular vein or other suitable vein at specified time points. For the IV infusion group, the blood samples were collected predose and at 0.25, 0.48, 0.58, 0.75, 1.5, 3, 6, 8, 12 and 24 hours after the start of infusion. For the oral group, the blood samples were collected predose and at 0.25, 0.50, 1, 2, 4, 6, 8, 12 and 24 hours after dosing. The blood samples were collected into VacutainerγM tubes containing EDTA-K3 as the anti-coagulant and were centrifuged at approximately 4° C. to obtain plasma. The plasma samples were stored at −20° C. until analysis by LC/MS/MS.
# A bioanalytical method utilizing high performance liquid chromatography coupled to tandem mass spectrometry (LC/MS/MS) was developed for analysis of the selected compound in rat plasma. Detection was performed using selected reaction monitoring (SRM); Ions representing the precursor (M+H)^+ species was selected in quadrupole 1 (Q1) and collided with argon gas in the collision cell (Q2) to generate specific product ion, which was subsequently monitored by quadrupole 3 (Q3). Standard curve and quality control samples were prepared in male rat plasma and processed in the same way as the test samples to generate quantitative data.
# Pharmacokinetic parameters were generated using non-compartmental pharmacokinetic analysis (Phoenix WinNonlin, version 6.3). Values below the lower limit of quantification (LLOQ) were assigned a value of zero if predose and treated as missing thereafter. Area under the curve (AUC) was calculated using the linear trapezoidal rule. The oral bioavailability (% F) was determined by comparison of the area under the curve (AUC) of the compound and/or a metabolite generated in plasma following oral administration to that generated following intravenous administration.
# [5] = tested on: NS5A chimeric genotype 1b Con1 replicon with genotype 3a S52 strain NS5A gene; test: Replicon assay, genotype 3a NS5A chimera; type: cell-based, HCV; conditions: Hepatitis C virus; for EC50: read-out: 3a (s) (nM), genotype 3a NS5A chimeric replicon, stable replicon cells (s); for pEC50: read-out: 3a (s), (s), activity range
# [6] = tested on: stable HCV 2a JFH-1 Rluc replicon cells (L31 present in NS5A); test: Renilla luciferase HCV replicon reporter assay, genotype 2a JFH-1; type: cell-based; conditions: Hepatitis C virus; for EC50: read-out: 2a JFH (nM), genotype 2a JFH-1 replicon (L31 in NS5A), stable cells; for pEC50: read-out: 2a JFH, stable 2a JFH-1 Rluc replicon cells, L31 in NS5A, activity range
# Outline: as §1
# [7] = tested on: NS5A chimeric genotype 2a JFH-1 replicon with genotype 2b MD2b-1 strain NS5A gene (M31 present); test: Replicon assay, genotype 2b NS5A chimera; type: cell-based, HCV; conditions: Hepatitis C virus; for pEC50: 2BS, read-out: 2b (s), stably replicating replicon cells (s), activity range; for EC50: read-out: 2b (s) (nM), genotype 2b MD2b-1 NS5A chimeric replicon (M31), stably replicating replicon cells (s)
# Outline: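 Cells carrying the stable or transiently transfected (Huh-Lunet) dicistronic RLuc replicons received 3-fold serial compound dilutions from 10 mM DMSO stocks. After 72 h, cells were lysed and Renilla luciferase read. DMSO served as the no-inhibition control and ITMN-191 above 100×EC50 as the positive control; EC50 by non-linear regression.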
# [8] = tested on: Q30R in genotype 1a NS5A (1a Pi-Rluc replicon, Huh-7-derived cured-51 cells); test: Replicon assay against resistance mutant 1a Q30R; type: cell-based, HCV; conditions: Hepatitis C virus; for pEC50: read-out: 1a Q30R; for EC50: read-out: 1a Q30R (nM)
# Protocol: Antiviral potency (EC50) was determined using a Renilla luciferase (RLuc)-based HCV replicon reporter assay. To perform the assay for genotype 1 and 2a JFH-1, stable HCV 1a RLuc replicon cells (harboring a dicistronic genotype 1a H77 replicon that encodes a RLuc reporter), stable HCV 1b RLuc replicon cells (harboring a dicistronic genotype 1b Con1 replicon that encodes a RLuc reporter), or stable HCV 2a JFH-1 Rluc replicon cells (harboring a dicistronic genotype 2a JFH-1 replicon that encodes a RLuc reporter; with L31 present in NS5A) were dispensed into 384-well plates for EC50 assays. To perform the assay for genotype 2a (with M31 present in NS5A) or 2b, NS5A chimeric genotype 2a JFH-1 replicons that encodes a RLuc-Neo reporter and either genotype 2a J6 strain NS5A gene or genotype 2b MD2b-1 strain NS5A gene (both with M31 present) respectively, were either transiently transfected (t) into Huh-Lunet cells or were established as stably replicating replicon cells (s) is provided. Either cells were dispensed into 384-well plates for EC50 assays. To perform the assay for genotype 3 and 4, NS5A chimeric genotype 1b Con1 replicons that encodes a Pi-RLuc reporter and either genotype 3a S52 strain NS5A gene or genotype 4a ED43 strain NS5A gene respectively, were transiently transfected (t) into Huh-Lunet cells, which were subsequently dispensed into 384-well plates. Compounds were dissolved in DMSO at a concentration of 10 mM and diluted in DMSO either manually or using an automated pipeting instrument. Serially 3-fold diluted compounds were either manually mixed with cell culture media and added to the seeded cells or directly added to the cells using an automated instrument. DMSO was used as a negative (solvent; no inhibition) control, and the protease inhibitor ITMN-191 was included at a concentration>100×EC50 as a positive control. 72 hours later, cells were lysed and Renilla luciferase activity quantified as recommended by the manufacturer (Promega-Madison, Wis.). Non-linear regression was performed to calculate EC50 values.
# To determine the antiviral potency (EC50) against resistance mutants, resistance mutations, including M28T, Q30R, Q30H, Q30E, L31M, Y93C, Y93H, and Y93N in genotype 1a NS5A, Y93H and L31V/Y93H in genotype 1b NS5A, and Y93H for in genotype 3a NS5A, were introduced individually into either 1a Pi-Rluc or 1b Pi-Rluc replicons by site directed mutagenesis. Replicon RNA of each resistant mutant was transiently transfected into Huh-7-derived cured-51 cells and antiviral potency was determined on these transfected cells as described above.
# [9] = tested on: NS5A chimeric genotype 2a JFH-1 replicon with genotype 2a J6 strain NS5A gene (M31 present); test: Replicon assay, genotype 2a J6 NS5A chimera; type: cell-based, HCV; conditions: Hepatitis C virus; for EC50: read-out: 2a J6 (t) (nM), genotype 2a J6 NS5A chimeric replicon (M31), transiently transfected (t) into Huh-Lunet cells; for pEC50: read-out: 2a J6 (t), transiently transfected (t) into Huh-Lunet cells, activity range
# Outline: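 72 h compound exposure (3-fold dilutions from 10 mM DMSO stocks) of replicon cells: stable dicistronic RLuc 1a H77, 1b Con1, 2a JFH-1 (NS5A L31); J6-NS5A chimera in JFH-1 (M31), transient in Huh-Lunet or stable. Renilla luciferase read-out, non-linear regression → EC50. DMSO negative control.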
SMILES,EC50 [1] [nM],pEC50 [1],pEC50 [2],pEC50 ([2]; activity range),pEC50 [3],bioavailability [4] [%],EC50 [5] [nM],pEC50 [5],EC50 [6] [nM],pEC50 [6],pEC50 [7],EC50 [7] [nM],pEC50 [8],EC50 [8] [nM],EC50 [9] [nM],pEC50 [9]
"CC[C@H](C)[C@H](NC(=O)OC)C(=O)N1[C@@H](C)CC[C@H]1c1ncc(-c2ccc3c(c2)COc2cc4c(ccc5nc([C@@H]6CC[C@H](C)N6C(=O)[C@@H](NC(=O)OC)[C@@H](C)OC)[nH]c54)cc2-3)[nH]1 [GF, Methyl {(2S,3S)-1-[(2S,5S)-2-(5-{2-[(2S,5S)-1-{(2S,3R)-3-methoxy-2-[(methoxycarbonyl)amino]butanoyl}-5-methylpyrrolidin-2-yl]-1,11-dihydroisochromeno[4′,3′:6,7]naphtho[1,2-d]imidazol-9-yl}-1H-imidazol-2-yl)-5-methylpyrrolidin-1-yl]-3-methyl-1-oxopentan-2-yl}carbamate]",0.011,> 10.00,11.15,> 10.00,10.82,15.6,0.027,> 10.00,0.018,> 10.00,9.00 to 10.00,0.203,,,,
CC[C@H]1CC[C@@H](c2nc3ccc4cc5c(cc4c3[nH]2)OCc2cc(-c3cnc([C@@H]4CC[C@H](C)N4C(=O)[C@@H](NC(=O)OC)[C@@H](C)CC)[nH]3)ccc2-5)N1C(=O)[C@@H](NC(=O)OC)C1CCOCC1 [IK],0.042,> 10.00,10.41,> 10.00,10.42,27.4,0.155,9.00 to 10.00,0.015,> 10.00,9.00 to 10.00,0.181,,,,
"CC[C@H]1CC[C@@H](c2nc3ccc4cc5c(cc4c3[nH]2)OCc2cc(-c3cnc([C@@H]4CC[C@H](C)N4C(=O)[C@@H](NC(=O)OC)C(C)C)[nH]3)ccc2-5)N1C(=O)[C@@H](NC(=O)OC)[C@@H](C)OC [EP, Methyl {(2S,3R)-1-[(2S,5S)-2-ethyl-5-(9-{2-[(2S,5S)-1-{(2S)-[(methoxycarbonyl)amino]-3-methylbutanoyl}-5-methylpyrrolidin-2-yl]-1H-imidazol-5-yl}-1,11-dihydroisochromeno[4′,3′:6,7]naphtho[1,2-d]imidazol-2-yl)pyrrolidin-1-yl]-3-methoxy-1l-oxobutan-2-yl}carbamate]",,,10.85,> 10.00,10.62,17.5,0.115,9.00 to 10.00,0.013,> 10.00,9.00 to 10.00,0.213,,,,
"COC(=O)N[C@H](C(=O)N1[C@@H](C)CC[C@H]1c1ncc(-c2ccc3c(c2)COc2cc4c(ccc5nc([C@@H]6CC[C@H](C)N6C(=O)[C@H](NC(=O)OC)c6ccccc6)[nH]c54)cc2-3)[nH]1)C(C)C [FB, Methyl {(1R)-2-[(2S,5S)-2-(9-{2-[(2S,5S)-1-{(2S)-2-[(methoxycarbonyl)amino]-3-methylbutanoyl}-5-methylpyrrolidin-2-yl]-1H-imidazol-5-yl}-1,11-dihydroisochromeno[4′,3′:6,7]naphtho[1,2-d]imidazol-2-yl)-5-methylpyrrolidin-1-yl]-2-oxo-1-phenylethyl}carbamate]",0.01,> 10.00,11.05,> 10.00,10.85,,0.026,> 10.00,0.013,> 10.00,> 10.00,0.081,> 10.00,0.077,0.105,9.00 to 10.00
"COC(=O)N[C@H](C(=O)N1[C@@H](C)CC[C@H]1c1ncc(-c2ccc3c(c2)COc2cc4c(ccc5nc([C@@H]6CC[C@H](C)N6C(=O)[C@@H](NC(=O)OC)[C@H](C)OC)[nH]c54)cc2-3)[nH]1)C(C)C [FK, Methyl [(2S)-1-{(2S,5S)-2-[5-(2-{(2S,5S)-1-[N-(methoxycarbonyl)-O-methyl-L-allothreonyl]-5-methylpyrrolidin-2-yl}-1,11-dihydroisochromeno[4′,3′:6,7]naphtho[1,2-d]imidazol-9-yl)-1H-imidazol-2-yl]-5-methylpyrrolidin-1-yl}-3-methyl-1-oxobutan-2-yl]carbamate]",0.018,> 10.00,10.62,> 10.00,10.43,,0.137,9.00 to 10.00,0.038,> 10.00,9.00 to 10.00,0.476,9.00 to 10.00,0.498,0.4,9.00 to 10.00
